From patent US20200085838A1, “METHODS OF TREATING EPILEPSY AND NEURODEVELOPMENTAL DISORDERS” (Praxis Precision Medicines, Inc., priority 2017, published 2020)

Key:
Format in all cases: cell-based
[1] = target: T1, human wild-type (WT) Nav1.2 (Homo sapiens, UniProt Q99250); assay: Whole-cell patch clamp of sodium currents (INa) in CHO cells transiently expressing wild-type Nav1.2; conditions: WT Nav1.2, CHO cells, mean±SEM
T1 construct: expressed in transfected cells; host or cells: CHO cells

human R1882Q Nav1.2 = target: T2, human R1882Q Nav1.2 (Homo sapiens, UniProt Q99250, R1882Q); assay: Whole-cell patch clamp of sodium currents (INa) in CHO cells transiently expressing R1882Q Nav1.2; conditions: R1882Q Nav1.2, CHO cells, mean±SEM
T2 construct: expressed in transfected cells; host or cells: CHO cells
T2 sequence (Q99250 whole entry R1882Q): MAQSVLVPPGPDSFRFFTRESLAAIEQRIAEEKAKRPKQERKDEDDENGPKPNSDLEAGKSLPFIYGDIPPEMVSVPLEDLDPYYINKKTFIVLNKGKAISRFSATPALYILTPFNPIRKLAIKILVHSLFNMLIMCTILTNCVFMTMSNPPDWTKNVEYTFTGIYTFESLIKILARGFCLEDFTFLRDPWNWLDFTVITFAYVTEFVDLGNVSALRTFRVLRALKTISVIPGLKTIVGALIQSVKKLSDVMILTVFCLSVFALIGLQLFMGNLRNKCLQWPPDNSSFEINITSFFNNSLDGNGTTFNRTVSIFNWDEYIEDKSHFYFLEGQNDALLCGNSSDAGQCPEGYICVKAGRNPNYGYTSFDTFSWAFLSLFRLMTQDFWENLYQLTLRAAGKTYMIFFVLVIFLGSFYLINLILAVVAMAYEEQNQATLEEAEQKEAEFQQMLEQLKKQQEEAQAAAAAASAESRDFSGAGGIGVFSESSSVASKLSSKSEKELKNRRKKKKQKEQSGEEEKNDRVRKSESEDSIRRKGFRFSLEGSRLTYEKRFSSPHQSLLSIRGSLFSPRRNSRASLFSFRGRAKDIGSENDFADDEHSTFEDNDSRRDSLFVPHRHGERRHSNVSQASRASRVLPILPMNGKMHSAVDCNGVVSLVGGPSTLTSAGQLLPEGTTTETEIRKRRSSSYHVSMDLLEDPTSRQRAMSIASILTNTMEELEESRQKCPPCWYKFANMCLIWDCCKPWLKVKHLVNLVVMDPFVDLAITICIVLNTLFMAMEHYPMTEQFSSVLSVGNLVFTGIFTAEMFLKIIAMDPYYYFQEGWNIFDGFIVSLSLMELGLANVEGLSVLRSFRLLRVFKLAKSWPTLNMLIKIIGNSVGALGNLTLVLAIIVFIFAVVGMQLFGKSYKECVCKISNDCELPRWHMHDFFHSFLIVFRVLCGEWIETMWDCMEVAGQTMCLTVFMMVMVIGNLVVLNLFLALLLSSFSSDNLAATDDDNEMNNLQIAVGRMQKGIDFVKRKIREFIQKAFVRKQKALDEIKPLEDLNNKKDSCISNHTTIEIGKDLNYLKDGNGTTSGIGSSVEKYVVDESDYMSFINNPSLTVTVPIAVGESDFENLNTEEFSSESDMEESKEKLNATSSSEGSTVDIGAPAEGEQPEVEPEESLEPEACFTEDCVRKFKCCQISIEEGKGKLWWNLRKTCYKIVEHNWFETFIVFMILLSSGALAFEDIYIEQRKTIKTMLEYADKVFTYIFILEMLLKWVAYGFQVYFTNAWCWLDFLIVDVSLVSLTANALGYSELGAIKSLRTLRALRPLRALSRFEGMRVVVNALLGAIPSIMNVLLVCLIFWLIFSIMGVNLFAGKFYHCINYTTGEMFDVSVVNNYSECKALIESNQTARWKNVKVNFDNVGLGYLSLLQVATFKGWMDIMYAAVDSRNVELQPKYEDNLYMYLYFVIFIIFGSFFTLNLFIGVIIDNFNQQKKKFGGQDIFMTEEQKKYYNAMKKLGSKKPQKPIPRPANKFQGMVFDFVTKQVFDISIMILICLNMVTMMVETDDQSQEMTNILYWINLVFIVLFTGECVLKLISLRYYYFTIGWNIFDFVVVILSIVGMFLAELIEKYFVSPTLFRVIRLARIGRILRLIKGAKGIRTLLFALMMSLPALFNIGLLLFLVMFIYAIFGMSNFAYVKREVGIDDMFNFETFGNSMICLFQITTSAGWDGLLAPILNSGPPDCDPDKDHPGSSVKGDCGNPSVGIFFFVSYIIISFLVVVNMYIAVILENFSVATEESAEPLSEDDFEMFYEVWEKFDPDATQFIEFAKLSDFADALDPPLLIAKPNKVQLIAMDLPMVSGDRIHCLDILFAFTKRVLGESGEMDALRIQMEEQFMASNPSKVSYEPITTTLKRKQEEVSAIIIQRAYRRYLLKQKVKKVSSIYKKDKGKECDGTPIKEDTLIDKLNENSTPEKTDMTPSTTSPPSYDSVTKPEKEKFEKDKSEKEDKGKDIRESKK

human K905N Nav1.2 = target: T3, human K905N Nav1.2 (Homo sapiens, UniProt Q99250, K905N); assay: Whole-cell patch clamp of sodium currents (INa) in CHO cells transiently expressing K905N Nav1.2; conditions: K905N Nav1.2, CHO cells, mean±SEM
T3 construct: expressed in transfected cells; host or cells: CHO cells
T3 sequence (Q99250 whole entry K905N): as the sequence (Q99250 whole entry R1882Q) above, with K905N, Q1882R counted along it

T1 sequence (Q99250 whole entry): as the sequence (Q99250 whole entry R1882Q) above, with Q1882R counted along it

Structure (SMILES): O=C1c2cc(-c3ccc(OC(F)(F)F)cc3)ccc2OCCN1Cc1ncccn1 [eleclazine, 4-(pyrimidin-2-ylmethyl)-7-(4-(trifluoromethoxy)phenyl)-3,4-dihydrobenzo[f][1,4]oxazepin-5(2H)-one]
- Hill slope Late INa ([1]; late INa at 100 ms, INaL enhanced with 3 nM ATX-II): 0.94 ± 0.06
- Hill slope Peak INa ([1]; peak INa): 0.63 ± 0.07
- Hill slope Late INa (human R1882Q Nav1.2; late INa at 100 ms): 0.64 ± 0.2
- Hill slope Peak INa (human R1882Q Nav1.2; peak INa): 0.36 ± 0.14
- Hill slope Late INa (human K905N Nav1.2; late INa at 100 ms): 0.55 ± 0.06
- Hill slope Peak INa (human K905N Nav1.2; peak INa): 0.78 ± 0.2
